In one test the target is T1, h-5-HT6 receptor (Homo sapiens, UniProt P50406).
T1 construct: expressed in transfected cells; host or cells: HEK293 cells (membrane preparation)
Description: Human 5-HT6 receptor radioligand binding assay ([3H]-LSD, HEK293 membranes). To be noted: HEK293 membranes, 1 nM [3H]-lysergic acid diethylamide, 3.5 hours at room temperature; read-out: Ki (μM), 5-HT6 Agonist Site Radioligand Binding. Here is the method:
(iv) Human 5-HT6 Receptor Radioligand Binding Assay
Preparation of Membranes by Ultrasonic Treatment and Differential Centrifugation
Cells from stable clonal cell lines expressing the corresponding receptor (5-HT6) were washed with PBS (without Ca^++, Mg^++) and harvested in PBS with 0.02% EDTA. The cells were collected by centrifugation at 500 g for 10 minutes at 4° C., washed with PBS and centrifuged (500 g, 10 minutes at 4° C.). The pellets were stored at −80° C. until use. For membrane preparation, the thawed cell pellet was resuspended in ice-cold sucrose buffer (0.25 M sucrose, 10 mM HEPES (pH 7.4), 1 mM phenylmethylsulfonyl fluoride (PMSF) in DMSO, 5 μg/ml Pepstatin-A, 3 mM EDTA, 0.025% Bacitracin) and homogenized with a Branson Sonifier W-250 (Settings: Timer 4; Output Control 3; Duty Cycle constant; 2 to 3 cycles). Cell disruption was checked with the aid of a microscope. Remaining unbroken cells were pelleted at 1,000 g for 10 minutes at 4° C. The sucrose buffer supernatant was then centrifuged at 60,000 g for 1 hour at 4° C. (Beckman Ultrazentrifuge XL 80). The pellet was resuspended in 30 mL of ice-cold Tris buffer (20 mM TRIS (pH 7.4), 5 μg/mL Pepstatin A, 0.1 mM PMSF, 3 mM EDTA) by pipetting through a 10 mL serological pipet and centrifuged for 1 hour at 4° C. at 60,000 g. A final resuspension was performed in a small volume of ice-cold Tris buffer (see above) by pressing through a serological pipet followed by ultrasonic treatment with a Branson Sonifier W-250 (Settings: Timer 1; Output Control 3; Duty Cycle constant; 1 cycle). Protein concentration was determined (BCA-Kit; Pierce) and aliquots stored at −80° C. or in liquid nitrogen for long-term storage.
Receptor Binding Experiments
All receptor binding experiments were carried out in the corresponding assay buffer in a total volume of 200 μL in the presence of various concentrations of test compound (10^−5 M to 10^−9 M, tenfold serial dilution, duplicate determinations). The assays were terminated by filtration on polyethylenimine (PEI 0.1% or 0.3%) presoaked Packard Unifilter Plates (GF/C or GF/B) with a Tomtec MachIII U 96 well-plate harvester. After the plates had been dried for 2 hours at 55° C. in a drying chamber scintillation cocktail (BetaPlate Scint; PerkinElmer) was added. Radioactivity was measured in a Microbeta Trilux two hours after the addition of the scintillation mixture.
5-HT6 Receptor Binding Assay
HEK293 cells stably expressing the h-5-HT6 receptor (NCBI Reference Sequence XM 001435) were cultured in RPMI1640 medium supplemented with 25 mM HEPES, 10% fetal calf serum and 1-2 mM glutamine. The membrane preparation was performed as described above. […] On the day of the assay, the membranes were thawed, diluted in assay buffer (50 mM Tris-HCl, 5 mM CaCl2, 0.1% ascorbic acid, 10 μM pargyline, pH 7.4) to a concentration of 8 μg protein/assay and homogenized by gentle vortexing. […] Non-specific binding was defined with 1 μM methiothepin. The binding reaction was carried out for 3.5 hours at room temperature. During the incubation, the plates were shaken on a plate shaker at 100 rpm and terminated by filtration on Packard Unifilter GF/C (0.1% PEI) plates, followed by 2 wash cycles with ice-cold 50 mM Tris-HCl, 5 mM CaCl2.
Data derived from liquid scintillation counting were analyzed by iterative non-linear regression analysis with the use of the Statistical Analysis System (SAS): a program similar to “LIGAND” as described by Munson and Rodbard (Anal. Biochem. 1980, 107, 220-239). Fitting was performed according to formulae described by Feldman (Anal. Biochem. 1972, 48, 317-338). IC50, nH and Ki values were expressed as geometrical mean.
The results of the receptor binding studies are expressed as receptor binding constants Ki(5-HT6) as described herein before, and given in Table 5.

The target of test [1] is T2, human serotonin 5-HT2c receptor (Homo sapiens, UniProt P28335).
T2 construct: expressed in transfected cells; host or cells: CHO cells (membrane homogenate)
T2 sequence (P28335 33-458): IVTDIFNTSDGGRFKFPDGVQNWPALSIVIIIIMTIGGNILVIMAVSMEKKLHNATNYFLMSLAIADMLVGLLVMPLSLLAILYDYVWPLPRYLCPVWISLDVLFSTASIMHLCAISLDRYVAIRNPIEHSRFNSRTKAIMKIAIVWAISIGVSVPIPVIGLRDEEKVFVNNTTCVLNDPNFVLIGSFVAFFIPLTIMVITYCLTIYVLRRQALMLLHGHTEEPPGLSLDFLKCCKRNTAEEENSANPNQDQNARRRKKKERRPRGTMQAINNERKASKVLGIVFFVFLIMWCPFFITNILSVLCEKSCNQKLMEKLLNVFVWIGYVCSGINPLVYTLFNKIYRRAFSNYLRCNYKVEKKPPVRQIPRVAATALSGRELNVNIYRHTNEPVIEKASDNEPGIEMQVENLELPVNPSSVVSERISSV
Description: Human 5-HT2C receptor radioligand binding assay (agonist site, [125I](±)DOI). Particulars: membranes of transfected CHO cells, 0.2 nM [125I](±)DOI, 15 minutes at 37° C. The procedure, abridged:
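Affinity for the agonist site measured by radioligand binding in transfected CHO cells expressing the human receptor, using [125I](±)DOI.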

The term Ki denotes a dissociation constant, usually derived from enzyme kinetics or from competition with a known ligand.

T1 sequence (P50406 whole entry): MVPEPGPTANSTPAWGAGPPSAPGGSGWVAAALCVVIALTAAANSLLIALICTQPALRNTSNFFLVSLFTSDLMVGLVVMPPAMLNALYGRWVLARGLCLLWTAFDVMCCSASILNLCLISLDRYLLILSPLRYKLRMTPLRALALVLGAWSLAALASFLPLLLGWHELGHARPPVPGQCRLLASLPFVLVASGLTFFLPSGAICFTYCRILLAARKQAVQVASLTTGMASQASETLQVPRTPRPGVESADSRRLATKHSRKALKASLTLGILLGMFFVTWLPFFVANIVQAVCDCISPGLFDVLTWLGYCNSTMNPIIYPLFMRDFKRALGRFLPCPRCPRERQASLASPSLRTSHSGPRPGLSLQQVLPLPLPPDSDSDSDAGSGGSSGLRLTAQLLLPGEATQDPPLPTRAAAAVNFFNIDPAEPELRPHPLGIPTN

Consider `O=C1NCC2CNCCN2c2ccc(NS(=O)(=O)c3ccccc3)cc21` (centres unmarked) [Example 48, N-(7-oxo-1,2,3,4,4a,5,6,7-octahydropyrazino[1,2-a][1,4]benzodiazepin-9-yl)benzenesulfonamide], for which the Ki on h-5-HT6 receptor was found to be 0.045 µM; in test [1], 27 µM.

Values taken from patent US8546377B2 (AbbVie Inc., priority 2009, dated 2013).
